Test results taken from patent US10568892B2, “Cycloartane tetracyclic triterpenoid compound, preparation method therefor and use thereof” (Hefei Cosource Pharmaceuticals Inc., priority 2016, dated 2020).
Read-outs that look alike come from different tables or passages of the source.

Columns and labels:
[1] = Single-dose toxicity (MTD) in SD rats; assay type: in vivo; settings: in vivo, SD rat, read-out: Maximum tolerance dose (MTD)
Excerpt: The results of the experimental study on the toxicity of Compound 369 administrated through a single intravenous or intragastrical administration in SD rats and KM mice are shown in Table 9.

SD rats = assay: Rat myocardial ischemia model with coronary artery ligation and reperfusion (arrhythmia incidence); assay type: in vivo; settings: for Death (%) / Death n / Ventricular fibrillation (%) / Ventricular fibrillation n / Ventricular premature beat (%) / Ventricular premature beat n / Ventricular tachycardia (%) / Ventricular tachycardia n: injection (sublingually) 5 min before ischemia
Excerpt: Method: SD rats were anesthetized with pentobarbital, and a cervical midline incision was made to separate and cut off the trachea such that it was connected to a respirator. The skin was cut along the midline of the left clavicle of the rat, and the chest was opened between the left third and fourth ribs to gently squeeze out the heart. The pericardium was opened, the needle was inserted at the left edge of the pulmonary artery cone and 2 mm at the lower edge of the left atrial appendage. The 6-0 non-invasive suture was threaded through the superficial myocardium, with the left anterior descending coronary artery (LAD) located thereon. After stabilization for 5 min, a double-layer plastic cannula was put on, and the cable tie was tighten to complete the myocardial ischemia induced by left coronary artery occlusion. The criterion for myocardial ischemia is the occurrence of myocardial infarction (St-segment ran up or T-wave was shown as high sharp wave) in the electrocardiogram and the presence of local cyanosis in the heart. After 5 min of myocardial ischemia, the inner cannula was withdrawn, that is, the wire knot was released for reperfusion, and the electrocardiogram of reperfusion in the rat was recorded.
The administration was performed at 5 min before the ischemia by coronary artery ligation, and the administration mode was injection administration (sublingually).

SD rat = assay: Rat model of heart failure induced by adriamycin; assay type: in vivo
Method: 2 mg/kg of adriamycin was injected through tail vein to a SD rat for modeling, once a week for 6 weeks. After the modeling was completed, intragastrical administration of Compound 369 at low (3 mg/kg) and high (9 mg/kg) doses was carried out daily for 4 weeks. In the negative control group, the same volume of normal saline was injected through the tail vein once a week for 6 weeks, thereafter the same volume of vehicle was intragastrically administrated daily for 4 weeks. After the end of the administration, the blood pressure was measured by the carotid artery intubation. The left ventricular end diastolic pressure (LVEDP), left ventricular systolic pressure (LVSP), maximal rate of left ventricular systolic pressure (+dp/dt max), and maximal rate of left ventricular diastolic pressure (−dp/dt max) were recorded, and the average values thereof were calculated.
After the hemodynamic indexes were measured, the chest was opened and the heart and lung were quickly taken out. They were immediately placed in the normal saline at 4° C. to wash down the remaining blood. The fats, blood vessels and atrial tissues on the heart were discarded. The heart was sucked dry by the filter paper, and accurately weighed using the electronic balance to record the heart weight. The ratio of heart weight to body weight (HW/BW), i.e., the heart mass index (HMI), was calculated.

[2] = Pharmacokinetics in Beagle canines; assay type: in vivo; settings: dog, in vivo
Method: Method: Six healthy male Beagle canines were selected and divided into two groups. 2 mg/kg of Compound 369 or cyclovirobuxine D was administrated intragastrically, respectively. Blood samples (about 2 mL) were collected from the limb venous of canines 0 h before administration as well as 0.25 h, 0.5 h, 1 h, 2 h, 4 h, 6 h, 8 h, and 12 h after administration. The concentrations of Compound 369 and cyclovirobuxine D in plasma samples were determined by LC-MS/MS, and the pharmacokinetic parameters were calculated by DAS.3.0 software.

guinea pig heart = assay: Atrial fibrillation induced by high- and low-potassium Langendorff perfusion of the guinea pig heart; settings: for Incidence (%) of atrial fibrillation / Number of animals developing atrial fibrillation: within 60 min of low-potassium perfusion
Excerpt: Method: a total of 24 guinea pigs were divided into 4 groups according to body weight, and were sacrificed. The heart was quickly taken out, and the blood was squeezed in the ice bath perfusion solution. The heart was quickly transferred in the Langendorff perfusion system, and the perfusion at a constant rate was started by turning on the oxygen-saturated perfusate. One end of the electrode was placed at the cardiac apex, and one end was placed at the right atrium (the position of the atrial appendage). The electrocardiogram was recorded on the computer.
After the heart was stabilized, 10 min after the perfusion of high-K perfusate, blank vehicle, 0.1 μM, 1 μM, and 10 μM of Compound 369, 1 μM Amiodarone and Cyclovirobuxine D were simultaneously administrated and the high K perfusion was continued for 20 min, respectively. Then, the high K perfusion was removed to administrate the low-K perfusate, and the electrocardiogram was obtained at the same time to record whether there was atrial fibrillation within 60 min of low-potassium perfusion.

[3] = High dose 9 mg/kg intragastrical daily for 4 weeks
[4] = Low dose 3 mg/kg intragastrical daily for 4 weeks

CN[C@H]1CC[C@]23C[C@]24CC[C@]2(C)C(C(C)=O)=CC[C@@]2(C)[C@@H]4CC[C@H]3C1(C)C [Compound 369, (3β,5α)-4,4,14-trimethyl-3-(methylamino)-9,19-cyclopregnan-16-en-20-one]
MTD ([1]; po, single intragastrical administration): 1000 mg/kg | MTD ([1]; single intravenous injection): 45 mg/kg | Death (%) (SD rats; 1 mg/kg): 38% | Death n (SD rats; 1 mg/kg): 3 | Ventricular fibrillation (%) (SD rats; 1 mg/kg): 63% | Ventricular fibrillation n (SD rats; 1 mg/kg): 5 | Ventricular premature beat (%) (SD rats; 1 mg/kg): 100% | Ventricular premature beat n (SD rats; 1 mg/kg): 8 | Ventricular tachycardia (%) (SD rats; 1 mg/kg): 100% | Ventricular tachycardia n (SD rats; 1 mg/kg): 8 | Death (%) (SD rats; 10 mg/kg): 0 (0) % | Death n (SD rats; 10 mg/kg): 0 (0) | Ventricular fibrillation (%) (SD rats; 10 mg/kg): 14% | Ventricular fibrillation n (SD rats; 10 mg/kg): 1 | Ventricular premature beat (%) (SD rats; 10 mg/kg): 86% | Ventricular premature beat n (SD rats; 10 mg/kg): 6 | Ventricular tachycardia (%) (SD rats; 10 mg/kg): 71% | Ventricular tachycardia n (SD rats; 10 mg/kg): 5 | Death (%) (SD rats; 30 mg/kg): 0 (0) % | Death n (SD rats; 30 mg/kg): 0 (0) | Ventricular fibrillation (%) (SD rats; 30 mg/kg): 0 (0) % | Ventricular fibrillation n (SD rats; 30 mg/kg): 0 (0) | Ventricular premature beat (%) (SD rats; 30 mg/kg): 83% | Ventricular premature beat n (SD rats; 30 mg/kg): 5 | Ventricular tachycardia (%) (SD rats; 30 mg/kg): 17% | Ventricular tachycardia n (SD rats; 30 mg/kg): 1 | Numbers of animals (incidences) with ventricular premature beat, ventricular tachycardia, ventricular fibrillation, and death vs vehicle (in words) (SD rats; 1 to 30 mg/kg, dose-response relationship): lower | Therapeutic effect on heart failure induced by adriamycin (in words) (SD rat; 3 and 9 mg/kg intragastrical daily for 4 weeks): a certain therapeutic effect | ADBP (SD rat; [3]): 47.0 ± 17.1 mmHg | ASBP (SD rat; [3]): 84.9 ± 13.3 mmHg | BW (SD rat; [3]): 380.3 ± 24.8 g | HW (SD rat; [3]): 1185.0 ± 135.3 mg | HW/BW (SD rat; [3]): 3.11 mg/g | LVEDP (SD rat; [3]): −14.2 ± 8.8 mmHg | LVSP (SD rat; [3]): 97.3 ± 8.9 mmHg | dp/dtmax (SD rat; [3]): 2402.3 ± 427.6 mmHg/s | −dp/dt max (SD rat; [3]): −2098.7 ± 345.9 mmHg/s | ADBP (SD rat; [4]): 40.4 ± 15.3 mmHg | ASBP (SD rat; [4]): 80.8 ± 17.3 mmHg | BW (SD rat; [4]): 308.5 ± 34.65 g | HW (SD rat; [4]): 1007.4 ± 145.3 mg | HW/BW (SD rat; [4]): 3.27 mg/g | LVEDP (SD rat; [4]): −12.7 ± 10.0 mmHg | LVSP (SD rat; [4]): 96.5 ± 9.1 mmHg | dp/dtmax (SD rat; [4]): 2317.7 ± 715.4 mmHg/s | −dp/dt max (SD rat; [4]): −2013.5 ± 405.4 mmHg/s | Exposures in plasma (AUC and Cmax values) vs cyclovirobuxine D (in words) [2]: higher than that of cyclovirobuxine D | Half-life (T1/2) vs cyclovirobuxine D (in words) [2]: shorter than that of cyclovirobuxine D | AUC(0-t) ([2]; male, Beagle, po, 2 mg/kg): 505 ng·h/mL | Cmax ([2]; male, Beagle, po, 2 mg/kg): 43.4 ng/mL | Tmax ([2]; male, Beagle, po, 2 mg/kg): 2.67 h | half-life ([2]; male, Beagle, po, 2 mg/kg): 11.1 h | Number of animals developing atrial fibrillation compared to the vehicle group (in words) (guinea pig heart; 0.1 μM to 10 μM, dose-dependent): significantly decreased | Incidence (%) of atrial fibrillation (guinea pig heart; 0.1 μM): 80% | Number of animals developing atrial fibrillation (guinea pig heart; 0.1 μM): 4 | Incidence of atrial fibrillation for ex vivo heart vs cyclovirobuxine D (in words) (guinea pig heart; 1 μM): significantly lower | Incidence (%) of atrial fibrillation (guinea pig heart; 1 μM): 33% | Number of animals developing atrial fibrillation (guinea pig heart; 1 μM): 2 | Incidence (%) of atrial fibrillation (guinea pig heart; 10 μM): 0% | Number of animals developing atrial fibrillation (guinea pig heart; 10 μM): 0
